Here are results for 1 compound from patent US12474353B2, “Methods and materials for assessing and treating obesity” (Mayo Foundation for Medical Education and Research, priority 2017, dated 2025).

For the series the following is noted: human, in vivo. The method, then:
The applicability of obesity-related phenotypes as actionable biomarkers was tested in three pilot, proof of concept studies (see, e.g., Acosta et al., 2015 Gastroenterology 148:537-546; Acosta et al., 2015 Physiol Rep 3; and Halawi et al., 2017 Lancet Gastroenterol Hepatol 2:890-899). First, in a single-center, randomized, parallel-group, double-blind, placebo-controlled, 14-day study, the effects of Phentermine-topiramate-ER (PhenTop) (7.5/46 mg, orally, daily) on gastric emptying (GE) and volume, satiation, satiety, and fasting and postprandial GI hormones was evaluated in 24 obese adults. […] Subsequently, in a prospective, NIH-funded, randomized, placebo controlled clinical trial to study the effects of liraglutide 3 mg, SQ, over 16 weeks on obesity phenotypes and weight in 40 obese patients. […]
A prospective, randomized clinical trial with liraglutide, a long-acting GLP-1 receptor agonist, was completed. […] At baseline and after 16 weeks' treatment, weight, gastric emptying of solids (GES, primary endpoint), large fasting gastric volumes, satiation, and satiety were measured. GES was also measured at 5 weeks. […] Effect of liraglutide on GES T1/2 at 5 and 16 weeks in the liraglutide group was analyzed by paired t-test. Seventeen participants were analyzed in the liraglutide group (n=19 randomized) and 18 in the placebo group (n=21 randomized).

With `CCCCCCCCCCCCCCCC(=O)N[C@@H](CCC(=O)NCCCC[C@H](NC(=O)[C@H](C)NC(=O)[C@H](C)NC(=O)[C@H](CCC(N)=O)NC(=O)CNC(=O)[C@H](CCC(=O)O)NC(=O)[C@H](CC(C)C)NC(=O)[C@H](Cc1ccc(O)cc1)NC(=O)[C@H](CO)NC(=O)[C@H](CO)NC(=O)[C@@H](NC(=O)[C@H](CC(=O)O)NC(=O)[C@H](CO)NC(=O)[C@@H](NC(=O)[C@H](Cc1ccccc1)NC(=O)[C@@H](NC(=O)CNC(=O)[C@H](CCC(=O)O)NC(=O)[C@H](C)NC(=O)[C@@H](N)Cc1cnc[nH]1)[C@@H](C)O)[C@@H](C)O)C(C)C)C(=O)N[C@@H](CCC(=O)O)C(=O)N[C@@H](Cc1ccccc1)C(=O)N[C@H](C(=O)N[C@@H](C)C(=O)N[C@@H](Cc1c[nH]c2ccccc12)C(=O)N[C@@H](CC(C)C)C(=O)N[C@H](C(=O)N[C@@H](CCCNC(=N)N)C(=O)NCC(=O)N[C@@H](CCCNC(=N)N)C(=O)NCC(=O)O)C(C)C)[C@@H](C)CC)C(=O)O` [liraglutide], the “Nausea (most common adverse event)” value is on record as 63.2%.
